In patent US8299048B2, “Hexahydrocyclopentyl[f]indazole sulfonamides and derivatives thereof as selective glucocorticoid receptor modulators” (Merck Sharp & Dohme Corp., priority 2008, dated 2012):

Tests used:
[1] = biological target: T1, human GR (Homo sapiens, UniProt P04150); assay: Trans-Activation Modulation of Glucocorticoid Receptor (GRAMMER), MMTV-LUC reporter, agonist mode; type: cell-based; set-up: endogenous in cells; conditions: for Emax: A549, A549 cells, maximum activity, read-out: Transactivation A549 Cells GRAMMER Emax; for EC50: A549 cells, inflection point, read-out: Transactivation A549 Cells GRAMMER IP
T1 sequence (P04150 1-777): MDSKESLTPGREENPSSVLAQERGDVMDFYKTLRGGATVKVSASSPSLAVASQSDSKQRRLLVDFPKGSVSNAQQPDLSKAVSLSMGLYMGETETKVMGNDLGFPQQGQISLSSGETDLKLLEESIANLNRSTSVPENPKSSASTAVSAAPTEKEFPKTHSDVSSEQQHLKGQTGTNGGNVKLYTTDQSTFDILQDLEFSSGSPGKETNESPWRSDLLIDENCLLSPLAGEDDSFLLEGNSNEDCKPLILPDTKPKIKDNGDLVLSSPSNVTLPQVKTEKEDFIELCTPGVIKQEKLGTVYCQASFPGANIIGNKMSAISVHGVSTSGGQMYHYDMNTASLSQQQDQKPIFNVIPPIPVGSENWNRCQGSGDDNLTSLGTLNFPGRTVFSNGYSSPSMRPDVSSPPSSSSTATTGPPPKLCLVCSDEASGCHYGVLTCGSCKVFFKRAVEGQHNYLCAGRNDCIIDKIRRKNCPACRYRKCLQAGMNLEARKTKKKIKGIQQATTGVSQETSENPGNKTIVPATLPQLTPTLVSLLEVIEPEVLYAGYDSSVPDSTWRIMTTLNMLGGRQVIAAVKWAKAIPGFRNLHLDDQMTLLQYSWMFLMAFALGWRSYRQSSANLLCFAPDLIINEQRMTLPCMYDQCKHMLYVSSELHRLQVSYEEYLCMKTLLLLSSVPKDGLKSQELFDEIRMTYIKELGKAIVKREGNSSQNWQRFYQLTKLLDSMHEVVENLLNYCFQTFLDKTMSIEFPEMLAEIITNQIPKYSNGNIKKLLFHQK
Description: This assay assesses the ability of test compounds to control transcription from the MMTV-LUC reporter gene in lung adenocarcinoma A549 cells or MDA-MB-453 cells, a human breast cancer cell line that naturally expresses the human GR. The assay measures induction of a modified MMTV LTR/promoter linked to the LUC reporter gene.
The routine transient assay consists of plating 7,000-25,000 cells/well of a white, clear-bottom 96-well plate. Alternatively, 384-well plates can be used at a cell concentration of 10,000/well. The media that the cells are plated in is “exponential growth medium” which consists of phenol red-free RPMI1640 containing 10% FBS, 4 mM L-glutamine, 20 mM HEPES, 10 ug/mL human insulin, and 20 ug/mL gentamicin. Incubator conditions are 37° C. and 5% CO2. The transfection is done in batch mode. The cells are trypsinized and counted to the right cell number in the proper amount of fresh media. It is then gently mixed with the FuGene6/DNA mix and plated onto the 96 or 384-well plate, all the wells receive 100 uL or 40 uL, respectively, of medium+lipid/DNA complex then incubated 37° C. overnight. The transfection cocktail consists of serum-free OptiMEM, FuGene6 reagent and DNA. The manufacturer's (Roche Biochemical) protocol for cocktail setup is as follows: The lipid to DNA ratio is approximately 2.5:1 and the incubation time is 20 min at room temperature. Sixteen to 24 hours after transfection, the cells are treated with dexamethasone to a final concentration of 10 nM as well as the compound of interest, such that final DMSO (vehicle) concentration is equal to or less than 1%. Each plate also contains samples that are treated with 10 nM dexamethasone alone, which is used as the 100% activity control. The cells are exposed to the compounds for 24 hours. After 24 hours, the cells are lysed by a Promega cell culture lysis buffer for approximately 30 min and then the luciferase activity in the extracts is assayed in the 96-well format luminometer. In 384-well format, Steady-Glo (Promega) or Steady-Lite (PerkinElmer) can be used by adding an equal volume of reagent to the media present in each well. Activity induced by 10 nM dexamethasone alone is set at 100% activity. Antagonist activity is calculated by determining the decrease in dexamethasone-induced activity in response to compound treatment relative to samples that were treated with dexamethasone alone. […] This transactivation assay can be performed in an agonist and antagonist mode to identify these different activities.

[2] = biological target: T1, human GR; assay: Transrepression Assay (GITAR), TNFα-β-lactamase reporter in U937 cells; type: cell-based; set-up: U937 cells contain an endogenous glucocorticoid receptor (GR); endogenous in cells; host or cells: U937 cells stably transfected with the TNF-alpha promoter/beta-lactamase reporter; conditions: for GITAR > GRAMM % SEP: GITAR Emax minus GRAMMER Emax; for EC50: U937 cells, inflection point, read-out: Transrepression U937 Cells GITAR IP
Description: This assay assesses the ability of test compounds to control transcription from the TNFα-β-lactamase reporter gene in U937 cells, a human myelomonocytic leukemia cell line that naturally expresses the human GR. The assay measures compound dependent-repression of the TNFa promoter linked to a reporter gene.
The human U937 cells that had been stablely transfected with the TNF-α promoter driving β-lactamase are used for this assay. U937 cells contain an endogenous glucocorticoid receptor (GR). Cells are maintained in RPMI 1640 Growth medium (Gibco Cat#11875-093) containing 25 mM HEPES, 10% FBS, 2 mM L-Glutamine, 1 mM Sodium pyruvate, 25 μg/ml Gentamicin (Gibco Cat#15710-064), 1:1000 2-Mercaptoethanol (Gibco Cat#21985-023) and 0.8 mg/ml G418 (Gibco Cat#10131-027). The density of the cells in the flask needs to be about 1×10^6−3×10^6/ml at the time of harvest. Usually, the cells are split to 1.2˜1.4×10^5/ml (1:10) 3 days prior to the assay. 50,000 cells/well are plated in 96 well black-walled plates the day of assay. Test compounds are added 10 μL/well, and cells are incubated at 37° C. for 30˜45 min. For assaying compounds, first dilute 1:10 in DMSO to make 1 mM, then further dilute 1:100 in medium to make 10× stock prior to adding to the cells. Add 50 ng/mlPMA (Sigma, cat# P8139) 10 μL/well to a final concentration 5 ng/ml, and 1 μg/ml LPS (Sigma, cat# L4130) 10 μL/well to a final concentration 100 ng/ml. Incubate cells at 37° C. overnight for ˜18 hr. PMA is stored frozen as 100 μg/ml stock in DMSO. Dilute 1:10 in DMSO for a working stock of 10 μg/ml and store at −20 C. For assaying, dilute the 10 μg/ml working stock 1:200 in medium to make a 10× solution (50 ng/ml). Store frozen LPS at 1 mg/ml in PBS, dilute 1:1000 in medium to make 10× (1 μg/ml) for the assay. Add 6× loading buffer (CCF2-AM) 20 μL/well, and incubate at room temperature for 70˜90 min. […] The activity repressed by 100 nM dexamethasone alone is set as 100% activity.

[3] = U-937, U937 cells, maximum activity, read-out: Transrepression U937 Cells GITAR Emax
[4] = U-937, activity repressed by 100 nM dexamethasone alone set as 100%, read-out: maximal activity in the transrepression (GITAR) assay

With `Cn1cc(S(=O)(=O)N(CCc2ccccc2F)C[C@H]2CCC3=Cc4c(cnn4-c4ccc(F)cc4)C[C@@]32C)c(C(F)(F)F)n1` [Example 98, N-[2-(2-fluorophenyl)ethyl]-N-{[(4αR,5S)-1-(4-fluorophenyl)-4α-methyl-1,4,4α,5,6,7-hexahydrocyclopenta[f]indazol-5-yl]methyl}-1-methyl-3-(trifluoromethyl)-1H-pyrazole-4-sulfonamide] the Emax [1] was 76.7%, the EC50 [1] was 239 nM and the “GITAR > GRAMM % SEP” value [2] was 13.2%. It also gave an EC50 [2] of 64.3 nM, an Emax [2, 3] of 89.9% and an Emax [2, 4] greater than 5%.
In the case of `C[C@]12Cc3cnn(-c4ccc(F)cc4)c3C=C1CC[C@@H]2CN(CCc1ccccc1F)S(=O)(=O)c1ccccc1C(F)(F)F` [Example 99, N-[2-(2-fluorophenyl)ethyl]-N-{[(4αR,5S)-1-(4-fluorophenyl)-4α-methyl-1,4,4α,5,6,7-hexahydrocyclopenta[f]indazol-5-yl]methyl}-2-(trifluoromethyl)benzenesulfonamide], the Emax [1] is reported as 62.1%, the EC50 [1] is reported as 236 nM and the “GITAR > GRAMM % SEP” value [2] is reported as 24.6%. The EC50 [2] was 64.4 nM, the Emax [2, 3] was 86.8% and the Emax [2, 4] was greater than 5%.
`C[C@]12Cc3cnn(-c4ccc(F)cc4)c3C=C1CC[C@@H]2CN(CCc1ccccc1F)S(=O)(=O)c1ccccc1Cl` [Example 100, 2-chloro-N-[2-(2-fluorophenyl)ethyl]-N-{[(4αR,5S)-1-(4-fluorophenyl)-4α-methyl-1,4,4α,5,6,7-hexahydrocyclopenta[f]indazol-5-yl]methyl}benzenesulfonamide] was tested, and the Emax [1] was 64.9%, the EC50 [1] was 397 nM and the “GITAR > GRAMM % SEP” value [2] was 14.2%. The EC50 [2] was 192 nM, the Emax [2, 3] was 79.1% and the Emax [2, 4] was greater than 5%.
`CCCCS(=O)(=O)N(CCc1ccccc1F)C[C@H]1CCC2=Cc3c(cnn3-c3ccc(F)cc3)C[C@@]21C` [Example 102, N-[2-(2-fluorophenyl)ethyl]-N-{[(4αR,5S)-1-(4-fluorophenyl)-4α-methyl-1,4,4α,5,6,7-hexahydrocyclopenta[f]indazol-5-yl]methyl}butane-1-sulfonamide] was tested, and the Emax [1] was 78.3%, the EC50 [1] was 203 nM and the “GITAR > GRAMM % SEP” value [2] was 8.2%. The EC50 [2] was 95.1 nM, the Emax [2, 3] was 86.5% and the Emax [2, 4] was greater than 5%.
`CC(C)CS(=O)(=O)N(CCc1ccccc1F)C[C@H]1CCC2=Cc3c(cnn3-c3ccc(F)cc3)C[C@@]21C` [Example 103, N-[2-(2-fluorophenyl)ethyl]-N-{[(4αR,5S)-1-(4-fluorophenyl)-4α-methyl-1,4,4α,5,6,7-hexahydrocyclopenta[f]indazol-5-yl]methyl}-2-methylpropane-1-sulfonamide] was tested, and the Emax [1] was 68.8%, the EC50 [1] was 367 nM and the “GITAR > GRAMM % SEP” value [2] was 7.7%. It also gave an EC50 [2] of 177 nM, an Emax [2, 3] of 76.5% and an Emax [2, 4] greater than 5%.
For `CCCCCCCCS(=O)(=O)N(CCc1ccccc1F)C[C@H]1CCC2=Cc3c(cnn3-c3ccc(F)cc3)C[C@@]21C` [Example 104, N-[2-(2-fluorophenyl)ethyl]-N-{[(4αR,5S)-1-(4-fluorophenyl)-4α-methyl-1,4,4α,5,6,7-hexahydrocyclopenta[f]indazol-5-yl]methyl}octane-1-sulfonamide], the Emax [1] was 9.2%, the EC50 [1] was 258 nM and the “GITAR > GRAMM % SEP” value [2] was 1.0%. It also gave an EC50 [2] of 153 nM, an Emax [2, 3] of 10.2% and an Emax [2, 4] greater than 5%.
In the case of `C[C@]12Cc3cnn(-c4ccc(F)cc4)c3C=C1CC[C@@H]2CN(CCc1ccccc1F)S(=O)(=O)Cc1ccc(Cl)cc1Cl` [Example 105, 1-(2,4-dichlorophenyl)-N-[2-(2-fluorophenyl)ethyl]-N-{[(4αR,5S)-1-(4-fluorophenyl)-4α-methyl-1,4,4α,5,6,7-hexahydrocyclopenta[f]indazol-5-yl]methyl}methanesulfonamide], the Emax [1] is reported as 85.5%, the EC50 [1] is reported as 193 nM and the “GITAR > GRAMM % SEP” value [2] is reported as 3.3%. For the same compound, the EC50 [2] was 109 nM, the Emax [2, 3] was 88.8% and the Emax [2, 4] was greater than 5%.
For `C[C@]12Cc3cnn(-c4ccc(F)cc4)c3C=C1CC[C@@H]2CN(CCc1ccccc1F)S(=O)(=O)Cc1cccc(Cl)c1` [Example 106, 1-(3-chlorophenyl)-N-[2-(2-fluorophenyl)ethyl]-N-{[(4αR,5S)-1-(4-fluorophenyl)-4α-methyl-1,4,4α,5,6,7-hexahydrocyclopenta[f]indazol-5-yl]methyl}methanesulfonamide], the Emax [1] was 82.8%, the EC50 [1] was 328 nM and the “GITAR > GRAMM % SEP” value [2] was 2.5%. For the same compound, the EC50 [2] was 44.1 nM, the Emax [2, 3] was 85.3% and the Emax [2, 4] was greater than 5%.
For `C[C@]12Cc3cnn(-c4ccc(F)cc4)c3C=C1CC[C@@H]2CN(CCc1ccccc1F)S(=O)(=O)Cc1ccccc1Cl` [Example 107, 1-(2-chlorophenyl)-N-[2-(2-fluorophenyl)ethyl]-N-{[(4αR,5S)-1-(4-fluorophenyl)-4α-methyl-1,4,4α,5,6,7-hexahydrocyclopenta[f]indazol-5-yl]methyl}methanesulfonamide], the Emax [1] was 73%, the EC50 [1] was 395 nM and the “GITAR > GRAMM % SEP” value [2] was 11.4%. The EC50 [2] was 54.1 nM, the Emax [2, 3] was 84.4% and the Emax [2, 4] was greater than 5%.
